How the values were obtained:
Experiment in all cases: relative viability (nuclei count vs DMSO), 5 days (fraction); higher = more cells survive
Crenolanib + Bortezomib = compound: CC1(COc2ccc3c(c2)ncn3-c2ccc3cccc(N4CCC(N)CC4)c3n2)COC1 [Crenolanib] + CC(C)C[C@H](NC(=O)[C@H](Cc1ccccc1)NC(=O)c1cnccn1)B(O)O [Bortezomib] (partner 0.002 µM)
Procedure, shortened: (§1)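 A single step with final 0.05% Triton X-100, 1% formaldehyde and 1 ug/ml Hoechst fixed the cells and stained nuclei 5 days after treatment. Lung cancer cell lines in 1536-well plates had been treated by pin tool the day after seeding with one drug alone or a fixed anchor-drug dose plus five library-drug doses (not always all listed) in √10 steps, and nuclei were counted on 4× images. Relative viability is the ratio of nuclei in treated wells to nuclei in vehicle wells, taken as the median of duplicate plates.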

Tivantinib + Navitoclax = compound: O=C1NC(=O)[C@@H](c2cn3c4c(cccc24)CCC3)[C@@H]1c1c[nH]c2ccccc12 [Tivantinib] + CC1(C)CCC(c2ccc(Cl)cc2)=C(CN2CCN(c3ccc(C(=O)NS(=O)(=O)c4ccc(N[C@H](CCN5CCOCC5)CSc5ccccc5)c(S(=O)(=O)C(F)(F)F)c4)cc3)CC2)C1 [Navitoclax] (partner 0.5 µM)
Procedure, shortened: as §1

Crenolanib + Trametinib = compound: CC1(COc2ccc3c(c2)ncn3-c2ccc3cccc(N4CCC(N)CC4)c3n2)COC1 [Crenolanib] + CC(=O)Nc1cccc(-n2c(=O)n(C3CC3)c(=O)c3c(Nc4ccc(I)cc4F)n(C)c(=O)c(C)c32)c1 [Trametinib] (partner 0.02 µM)
Procedure, shortened: as §1

Tivantinib + Tozasertib = compound: O=C1NC(=O)[C@@H](c2cn3c4c(cccc24)CCC3)[C@@H]1c1c[nH]c2ccccc12 [Tivantinib] + Cc1cc(Nc2cc(N3CCN(C)CC3)nc(Sc3ccc(NC(=O)C4CC4)cc3)n2)n[nH]1 [Tozasertib] (partner 0.1 µM)
Procedure, shortened: as §1

UMC-11
relative viability (Crenolanib + Bortezomib; first compound 0.01 µM): 0.811 | relative viability (Crenolanib + Bortezomib; first compound 0.03162 µM): 0.753 | relative viability (Crenolanib + Bortezomib; first compound 0.1 µM): 0.703 | relative viability (Crenolanib + Bortezomib; first compound 0.3162 µM): 0.752 | relative viability (Crenolanib + Bortezomib; first compound 1 µM): 0.757 | relative viability (Tivantinib + Navitoclax; first compound 0.01 µM): 0.316 | relative viability (Tivantinib + Navitoclax; first compound 0.03162 µM): 0.334 | relative viability (Tivantinib + Navitoclax; first compound 0.1 µM): 0.29 | relative viability (Tivantinib + Navitoclax; first compound 0.3162 µM): 0.34 | relative viability (Crenolanib + Trametinib; first compound 0.01 µM): 0.74 | relative viability (Crenolanib + Trametinib; first compound 0.03162 µM): 0.676 | relative viability (Crenolanib + Trametinib; first compound 0.1 µM): 0.683 | relative viability (Crenolanib + Trametinib; first compound 0.3162 µM): 0.68 | relative viability (Crenolanib + Trametinib; first compound 1 µM): 0.684 | relative viability (Tivantinib + Tozasertib; first compound 0.01 µM): 0.202 | relative viability (Tivantinib + Tozasertib; first compound 0.1 µM): 0.178 | relative viability (Tivantinib + Tozasertib; first compound 0.3162 µM): 0.188

— the supplement of paper PMC10307832
